Results published in US12215093B2, “Bicyclic carboxamides and methods of use thereof” (Tempest Therapeutics, Inc., priority 2018, dated 2025).
Read-outs that look alike come from different tables or passages of the source.

Key:
[1] = Relative activity of resolved enantiomers/diastereomers (assay not stated); conditions: compared with the other eluting peak
[2] = target: T1, EP2 (Homo sapiens, UniProt P43116);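 note: functional calcium flux assay in stably transfected HEK293 cells expressing EP2 coupled via a promiscuous G protein, clytin luminescence read as area under the curve, 30 min compound preincubation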
[3] = target: T2, EP4 (Homo sapiens, UniProt P35408); experiment: Functional calcium flux assay, EP4; format: cell-based; conditions: stably transfected HEK293 cells; PGE2 10 nM; read-out: EP4 Ca2+-flux assay IC50
T2 construct: host or cells: stably transfected HEK293 cells co-expressing a promiscuous G protein and a clytin variant

[4] = target: T1, EP2; experiment: cell-based

T1 sequence (P43116 whole entry): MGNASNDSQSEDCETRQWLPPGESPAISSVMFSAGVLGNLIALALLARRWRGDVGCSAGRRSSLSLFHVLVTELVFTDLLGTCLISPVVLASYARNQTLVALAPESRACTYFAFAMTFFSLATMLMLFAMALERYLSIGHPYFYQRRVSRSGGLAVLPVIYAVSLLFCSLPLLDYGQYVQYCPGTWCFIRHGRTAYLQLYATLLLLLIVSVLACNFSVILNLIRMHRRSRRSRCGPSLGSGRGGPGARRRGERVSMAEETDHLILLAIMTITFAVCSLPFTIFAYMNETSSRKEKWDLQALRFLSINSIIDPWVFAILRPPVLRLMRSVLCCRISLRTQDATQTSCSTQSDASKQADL
T2 sequence (P35408 whole entry): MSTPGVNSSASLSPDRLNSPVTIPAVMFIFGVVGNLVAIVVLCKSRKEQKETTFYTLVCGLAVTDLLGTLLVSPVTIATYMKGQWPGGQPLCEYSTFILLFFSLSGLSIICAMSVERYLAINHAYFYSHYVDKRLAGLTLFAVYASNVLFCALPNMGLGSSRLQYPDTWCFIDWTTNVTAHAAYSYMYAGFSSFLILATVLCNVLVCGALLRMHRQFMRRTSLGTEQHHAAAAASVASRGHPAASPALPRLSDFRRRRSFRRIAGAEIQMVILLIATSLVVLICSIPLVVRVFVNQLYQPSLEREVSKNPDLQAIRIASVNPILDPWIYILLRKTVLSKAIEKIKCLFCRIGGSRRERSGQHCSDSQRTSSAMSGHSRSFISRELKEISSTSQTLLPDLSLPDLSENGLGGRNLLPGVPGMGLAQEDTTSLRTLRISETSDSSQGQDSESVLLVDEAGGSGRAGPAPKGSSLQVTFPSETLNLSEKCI

Row | Structure (SMILES) | more active enantiomer / diastereomer after chiral SFC resolution [1] | IC50 [2] | IC50 [3] | IC50 [4]
1 | CC(c1ccc(-c2ccccc2)cc1)n1ncc2cc(Cl)cc(C(=O)NC3CC4(C3)CC(C(=O)O)C4)c21 (single isomer, unassigned) [Example 174, (Sa)-6-(1-((R) or (S))-1-([1,1′-Biphenyl]-4-yl)ethyl)-5-chloro-1H-indazole-7-carboxamido)spiro[3.3]heptane-2-carboxylic acid] | more active diastereomer | < 25 nM | 6.4 nM | 
2 | CC(c1ccc(-c2ccccc2)cc1)n1ncc2cccc(C(=O)NC3CC4(C3)CC(C(=O)O)C4)c21 (single isomer, unassigned) [Example 125, (Sa)-6-(1-((R) or (S)-1-([1,1′-Biphenyl]-4-yl)-ethyl)-1H-indazole-7-carboxamido)spiro[3.3]heptane-2-carboxylic acid] | more active diastereomer |  | < 1 nM | < 25 nM
3 | [2H]C1(C(=O)O)CC2(CC(NC(=O)c3ccc(F)c4ccn(Cc5ccc(-c6ccccc6)cc5)c34)C2)C1 (stereo not drawn) [Example 105, (Sa)-6-(1-([1,1′-Biphenyl]-4-ylmethyl)-4-fluoro-1H-indole-7-carboxamido)-2-deuterospiro[3.3]heptane-2-carboxylic acid] | more active enantiomer |  |  | 
4 | O=C(NC1CC2(C1)CC(C(=O)O)C2)c1ccc(F)c2ccn(Cc3ccc(-c4ccncc4)cc3)c12 (stereo not drawn) [Example 24, (Sa)-6-(4-Fluoro-1-(4-(pyridin-4-yl)benzyl)-1H-indole-7-carboxamido)spiro[3.3]heptane-2-carboxylic acid] | more active enantiomer |  |  | 
5 | O=C(NC1CC2(C1)CC(C(=O)O)C2)c1ccc(F)c2ccn(Cc3ccc(-c4ccccc4)cc3)c12 (stereo not drawn) [Example 9, (Sa)-6-(1-([1,1′-Biphenyl]-4-ylmethyl)-4-fluoro-1H-indole-7-carboxamido)spiro[3.3]heptane-2-carboxylic acid] | more active enantiomer |  |  | 
6 | COc1ncc(-c2ccc(Cn3ccc4c(F)ccc(C(=O)NC5CC6(C5)CC(C(=O)O)C6)c43)cc2)cc1Cl (racemic) [Example 17, (racemic)-6-(1-(4-(5-Chloro-6-methoxypyridin-3-yl)benzyl)-4-fluoro-1H-indole-7-carboxamido)spiro[3.3]heptane-2-carboxylic acid] |  |  | 7 nM | < 25 nM
7 | COc1ccc(-c2ccc(Cn3ccc4c(F)ccc(C(=O)NC5CC6(C5)CC(C(=O)O)C6)c43)cc2)cc1F (racemic) [Example 16, (racemic)-6-(4-fluoro-1-((3′-fluoro-4′-methoxy-[1,1′-biphenyl]-4-yl)methyl)-1H-indole-7-carboxamido)spiro[3.3]heptane-2-carboxylic acid] |  |  | < 1 nM | < 25 nM
8 | O=C(NC1CC2(C1)CC(C(=O)O)C2)c1ccc(F)c2ccn(Cc3ccc(-c4ccccc4)c(F)c3)c12 (racemic) [Example 10, (racemic)-6-(4-Fluoro-1-((2-fluoro-[1,1′-biphenyl]-4-yl)methyl)-1H-indole-7-carboxamido)spiro[3.3]heptane-2-carboxylic acid] |  |  | < 1 nM | < 25 nM
9 | CCOc1cccc(-c2ccc(Cn3ccc4c(F)ccc(C(=O)NC5CC6(C5)CC(C(=O)O)C6)c43)cc2)n1 (stereo not drawn) [Example 56, (Sa)-6-(1-(4-(6-Ethoxypyridin-2-yl)benzyl)-4-fluoro-1H-indole-7-carboxamido)spiro[3.3]heptane-2-carboxylic acid] |  |  | < 1 nM | 76 nM
10 | O=C(NC1CC2(C1)CC(C(=O)O)C2)c1ccc(Cl)c2ccn(Cc3ccc(N4CCOCC4)cc3)c12 (stereo not drawn) [Example 71, (Sa)-6-(4-Chloro-1-(4-morpholinobenzyl)-1H-indole-7-carboxamido)spiro[3.3]heptane-2-carboxylic acid] |  |  | < 1 nM | 94 nM
11 | COc1cc(-c2ccc(Cn3ncc4c(Cl)ccc(C(=O)NC5CC6(C5)CC(C(=O)O)C6)c43)cc2)ccn1 (stereo not drawn) [Example 78, (Sa)-6-(4-Chloro-1-(4-(2-methoxypyridin-4-yl)benzyl)-1H-indazole-7-carboxamido)spiro[3.3]heptane-2-carboxylic acid] |  |  | 4.4 nM | 99 nM
12 | O=C(NC1CC2(C1)CC(C(=O)O)C2)c1ccc(F)c2ccn(Cc3ccc(OC(F)(F)F)cc3)c12 (stereo not drawn) [Example 8, (Sa)-6-(4-Fluoro-1-(4-(trifluoromethoxy)benzyl)-1H-indole-7-carboxamido)spiro[3.3]heptane-2-carboxylic acid] | more active enantiomer |  | < 1 nM | 43 nM
